Measurements from patent US20230039766A1, “COMBINATION THERAPY” (TURBINE SIMULATED CELL TECHNOLOGIES LTD, priority 2019, published 2023).

What was measured:
NCIH1975 cell line = assay: CellTiter-Glo cell viability assay with Bliss synergy, NCIH1975 cells; type: cell-based
BT474 cell line = assay: CellTiter-Glo cell viability assay with Bliss synergy, BT474 cells; type: cell-based

## O=C(c1cc(Cc2n[nH]c(=O)c3ccccc23)ccc1F)N1CCN(C(=O)C2CC2)CC1 [Olaparib]
NCIH1975 cell line; Olaparib 6.67 μM monotherapy
  Viability/εij: 0.678
BT474 cell line; Olaparib 6.67 μM monotherapy
  Viability/εij: 0.825

## O=c1[nH]c(=S)[nH]c(N=Cc2ccccc2)c1N=Cc1ccccc1 [SCR7]
BT474 cell line; SCR7 60 μM monotherapy
  Viability/εij: 0.653

## Cn1ncnc1[C@H]1c2n[nH]c(=O)c3cc(F)cc(c23)N[C@@H]1c1ccc(F)cc1 [Talazoparib]
NCIH1975 cell line; Talazoparib 0.25 μM monotherapy
  Viability/εij: 0.597
